Reference: the NIST ThermoML archive (doi:10.1016/j.tca.2013.12.015)

Assay: mn = molality of the nth substance listed, in mol/kg
Details: 101 kPa, Liquid; for speed of sound: Single path-length method; for mass density: Vibrating tube method

CCCCn1cc[n+](C)c1.[Br-] [1-butyl-3-methylimidazolium bromide] + O
Details	mass density, 288.15 K [kg/m3]	mass density, 293.15 K [kg/m3]	mass density, 298.15 K [kg/m3]	mass density, 303.15 K [kg/m3]	mass density, 308.15 K [kg/m3]	speed of sound, 288.15 K [m/s]	speed of sound, 293.15 K [m/s]	speed of sound, 298.15 K [m/s]	speed of sound, 303.15 K [m/s]	speed of sound, 308.15 K [m/s]
m1 = 0.1019	1004.34	1003.53	1002.16	1000.83	999.035	1479	1494.2	1506.8	1518.8	1528.1
m1 = 0.3048	1000.67	999.754	998.577	997.164	995.54	1470.2	1486.1	1500	1512.1	1522.2

COC(=O)CC(C)=O [methyl 3-oxobutanoate] + O
Details	mass density, 288.15 K [kg/m3]	mass density, 293.15 K [kg/m3]	mass density, 298.15 K [kg/m3]	mass density, 303.15 K [kg/m3]	mass density, 308.15 K [kg/m3]	speed of sound, 288.15 K [m/s]	speed of sound, 293.15 K [m/s]	speed of sound, 298.15 K [m/s]	speed of sound, 303.15 K [m/s]	speed of sound, 308.15 K [m/s]
m1 = 0.0809	1000.36	999.43	998.205	996.78	995.12	1472.5	1487.7	1501.3	1513.1	1523.2
m1 = 0.1654	1001.65	1000.66	999.37	997.9	996.2	1477.3	1491.9	1504.8	1516.1	1525.7
m1 = 0.285	1003.44	1002.36	1001	999.454	997.68	1484.7	1498.3	1510.5	1521	1529.9
m1 = 0.386	1004.9	1003.75	1002.33	1000.73	998.91	1490.1	1503.1	1514.6	1524.4	1532.7
m1 = 0.4607	1005.98	1004.75	1003.3	1001.65	999.79	1494.2	1506.6	1517.6	1527	1534.9
m1 = 0.5604	1007.37	1006.06	1004.56	1002.85	1000.94	1499.6	1511.4	1521.7	1530.5	1537.9
m1 = 0.6367	1008.4	1007.01	1005.53	1003.74	1001.79	1503	1514.2	1524.1	1532.5	1539.5
m1 = 0.7871	1010.4	1008.9	1007.35	1005.47	1003.45	1509.8	1520.2	1529.1	1536.7	1542.9
m1 = 0.8429	1011.13	1009.58	1008	1006.11	1004.04	1512.2	1522.2	1530.9	1538.1	1544

O [water] + CCOC(=O)CC(C)=O
Details	mass density [kg/m3]
308.15 K, m2 = 0	994.062
